Data from patent US20240293551A1, “USE OF ST-TYPE LIPID COMPOUNDS IN PREPARATION OF NUCLEIC ACID DELIVERY REAGENT AND RELATED PRODUCT” (INSTITUTE OF BASIC MEDICAL SCIENCES CHINESE ACADEMY OF …, priority 2021, published 2024).

Tested on: PGY-sRNA-26
Assay: In vivo delivery study of lipid-nucleic acid mixture (oral gavage, RT-qPCR of PGY-sRNA-26 in tissues)
Parameters: species or system mouse
Details: C57BL/6 mice, gavage, 100 μg lipid: 10 nmol PGY-sRNA-26, 12 hours; for oral delivery of single-stranded sRNA nucleic acids into mouse intestinal tissue: intestine; for delivery efficacy over each tissue and blood tested (broad-spectrum delivery): all tissues and blood tested
Procedure, shortened: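 C57BL/6 male mice (~6 weeks, 20-24 g), fasted 12 h, were gavaged with 10 nmol 3′-methylated PGY-sRNA-26 mixed with 100 μg lipid (heated 90° C. 15 min), versus saline or free sRNA (n=4 each). After 12 h, blood and tissues were Trizol-extracted; sRNA quantified by stem-loop RT-qPCR relative to U6.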

**Q.** Which results are given for CC(C)CCC[C@@H](C)[C@H]1CC[C@H]2[C@@H]3CC[C@H]4C[C@@H](O)CC[C@]4(C)[C@H]3CC[C@]12C [Lipid 583, 5α-cholestan-3β-ol (3S,5S,8R,9S,10S,13R,14S,17R)-10,13-dimethyl-17-[(2R)-6-methylheptan-2-yl]-2,3,4,5,6,7,8,9,11,12,14,15,16,17-tetradecahydro-1H-cyclopenta[a]phenanthren-3-ol]?
**A.** oral delivery of single-stranded sRNA nucleic acids into mouse blood: can effectively orally deliver; oral delivery of single-stranded sRNA nucleic acids into mouse brain tissue: can effectively orally deliver; oral delivery of single-stranded sRNA nucleic acids into mouse femur: can effectively orally deliver; oral delivery of single-stranded sRNA nucleic acids into mouse heart tissue: can effectively orally deliver; oral delivery of single-stranded sRNA nucleic acids into mouse intestinal tissue: can effectively orally deliver; oral delivery of single-stranded sRNA nucleic acids into mouse liver tissue: can effectively orally deliver; oral delivery of single-stranded sRNA nucleic acids into mouse lung tissue: can effectively orally deliver; oral delivery of single-stranded sRNA nucleic acids into mouse stomach tissue: can effectively orally deliver

**Q.** CCCCCCCCCCCCCCCCCC(=O)O[C@H]1CC[C@@]2(C)C(=CC[C@H]3[C@@H]4CC[C@H]([C@H](C)CCCC(C)C)[C@@]4(C)CC[C@@H]32)C1 [Lipid 584] was tested. Which “oral delivery of single-stranded sRNA nucleic acids into mouse blood” value did it give?
**A.** Its value is “can effectively orally deliver”.

**Q.** What about the “oral delivery of single-stranded sRNA nucleic acids into mouse brain tissue” value of the same compound?
**A.** Its value is “can effectively orally deliver”.

**Q.** And the “oral delivery of single-stranded sRNA nucleic acids into mouse femur” value?
**A.** Its value is “can effectively orally deliver”.

**Q.** What about the “oral delivery of single-stranded sRNA nucleic acids into mouse heart tissue” value of the same compound?
**A.** The value was “can effectively orally deliver”.

**Q.** And the “oral delivery of single-stranded sRNA nucleic acids into mouse intestinal tissue” value?
**A.** Its value is “can effectively orally deliver”.

**Q.** And the “oral delivery of single-stranded sRNA nucleic acids into mouse liver tissue” value?
**A.** Its value is “can effectively orally deliver”.

**Q.** And the “oral delivery of single-stranded sRNA nucleic acids into mouse lung tissue” value?
**A.** The value was “can effectively orally deliver”.

**Q.** What about the “oral delivery of single-stranded sRNA nucleic acids into mouse spleen tissue” value of the same compound?
**A.** The value was “can effectively orally deliver”.

**Q.** And the “oral delivery of single-stranded sRNA nucleic acids into mouse stomach tissue” value?
**A.** The value was “can effectively orally deliver”.

**Q.** What does the source list for CC(=O)OCC(=O)[C@@]1(O)CC[C@H]2[C@@H]3CCC4=CC(=O)CC[C@]4(C)[C@H]3C(=O)C[C@@]21C [Lipid 585]?
**A.** oral delivery of single-stranded sRNA nucleic acids into mouse blood: can effectively orally deliver; oral delivery of single-stranded sRNA nucleic acids into mouse brain tissue: can effectively orally deliver; oral delivery of single-stranded sRNA nucleic acids into mouse femur: can effectively orally deliver; oral delivery of single-stranded sRNA nucleic acids into mouse heart tissue: can effectively orally deliver; oral delivery of single-stranded sRNA nucleic acids into mouse intestinal tissue: can effectively orally deliver; oral delivery of single-stranded sRNA nucleic acids into mouse kidney tissue: can effectively orally deliver; oral delivery of single-stranded sRNA nucleic acids into mouse liver tissue: can effectively orally deliver; oral delivery of single-stranded sRNA nucleic acids into mouse lung tissue: can effectively orally deliver; oral delivery of single-stranded sRNA nucleic acids into mouse spleen tissue: can effectively orally deliver; oral delivery of single-stranded sRNA nucleic acids into mouse stomach tissue: can effectively orally deliver

**Q.** What does the source list for C[C@H](CCC(=O)O)[C@H]1CC[C@H]2[C@@H]3C(=O)C[C@@H]4C[C@H](O)CC[C@]4(C)[C@H]3CC[C@]12C [Lipid 586]?
**A.** oral delivery of single-stranded sRNA nucleic acids into mouse blood: can effectively orally deliver; oral delivery of single-stranded sRNA nucleic acids into mouse brain tissue: can effectively orally deliver; oral delivery of single-stranded sRNA nucleic acids into mouse femur: can effectively orally deliver; oral delivery of single-stranded sRNA nucleic acids into mouse heart tissue: can effectively orally deliver; oral delivery of single-stranded sRNA nucleic acids into mouse intestinal tissue: can effectively orally deliver; oral delivery of single-stranded sRNA nucleic acids into mouse kidney tissue: can effectively orally deliver; oral delivery of single-stranded sRNA nucleic acids into mouse liver tissue: can effectively orally deliver; oral delivery of single-stranded sRNA nucleic acids into mouse spleen tissue: can effectively orally deliver; oral delivery of single-stranded sRNA nucleic acids into mouse stomach tissue: can effectively orally deliver

**Q.** For C[C@]12CCC(=O)C=C1CC[C@@H]1[C@@H]2CC[C@]2(C)C(=O)CC[C@@H]12 [Lipid 587], which “oral delivery of single-stranded sRNA nucleic acids into mouse blood” value is on record?
**A.** The value was “can effectively orally deliver”.

**Q.** And the “oral delivery of single-stranded sRNA nucleic acids into mouse brain tissue” value?
**A.** Its value is “can effectively orally deliver”.

**Q.** What about the “oral delivery of single-stranded sRNA nucleic acids into mouse heart tissue” value of the same compound?
**A.** Its value is “can effectively orally deliver”.

**Q.** What about the “oral delivery of single-stranded sRNA nucleic acids into mouse kidney tissue” value of the same compound?
**A.** The value was “can effectively orally deliver”.

**Q.** What about the “oral delivery of single-stranded sRNA nucleic acids into mouse spleen tissue” value of the same compound?
**A.** The value was “can effectively orally deliver”.

**Q.** And the “oral delivery of single-stranded sRNA nucleic acids into mouse stomach tissue” value?
**A.** The value was “can effectively orally deliver”.

**Q.** What does the source list for C[C@@H]1CC[C@@]2(OC1)O[C@H]1C[C@H]3[C@@H]4CC=C5C[C@@H](O)CC[C@]5(C)[C@H]4CC[C@]3(C)[C@H]1[C@@H]2C [Lipid 589]?
**A.** delivery efficacy over each tissue and blood tested (broad-spectrum delivery): exhibited the best delivery efficacy; oral delivery of single-stranded sRNA nucleic acids into mouse blood: can effectively orally deliver; oral delivery of single-stranded sRNA nucleic acids into mouse brain tissue: can effectively orally deliver; oral delivery of single-stranded sRNA nucleic acids into mouse femur: can effectively orally deliver; oral delivery of single-stranded sRNA nucleic acids into mouse heart tissue: can effectively orally deliver; oral delivery of single-stranded sRNA nucleic acids into mouse intestinal tissue: can effectively orally deliver; oral delivery of single-stranded sRNA nucleic acids into mouse kidney tissue: can effectively orally deliver; oral delivery of single-stranded sRNA nucleic acids into mouse liver tissue: can effectively orally deliver; oral delivery of single-stranded sRNA nucleic acids into mouse lung tissue: can effectively orally deliver; oral delivery of single-stranded sRNA nucleic acids into mouse spleen tissue: can effectively orally deliver; oral delivery of single-stranded sRNA nucleic acids into mouse stomach tissue: can effectively orally deliver

**Q.** For CC(=O)[C@H]1CC[C@H]2[C@@H]3CC=C4C[C@@H](O)CC[C@]4(C)[C@H]3CC[C@]12C [Lipid 590], which “delivery efficacy over each tissue and blood tested (broad-spectrum delivery)” value is on record?
**A.** The value was “exhibited the best delivery efficacy”.

**Q.** What about the “oral delivery of single-stranded sRNA nucleic acids into mouse blood” value of the same compound?
**A.** Its value is “can effectively orally deliver”.

**Q.** And the “oral delivery of single-stranded sRNA nucleic acids into mouse brain tissue” value?
**A.** Its value is “can effectively orally deliver”.

**Q.** And the “oral delivery of single-stranded sRNA nucleic acids into mouse femur” value?
**A.** Its value is “can effectively orally deliver”.

**Q.** What about the “oral delivery of single-stranded sRNA nucleic acids into mouse heart tissue” value of the same compound?
**A.** The value was “can effectively orally deliver”.

**Q.** And the “oral delivery of single-stranded sRNA nucleic acids into mouse intestinal tissue” value?
**A.** Its value is “can effectively orally deliver”.

**Q.** What about the “oral delivery of single-stranded sRNA nucleic acids into mouse kidney tissue” value of the same compound?
**A.** The value was “can effectively orally deliver”.

**Q.** And the “oral delivery of single-stranded sRNA nucleic acids into mouse liver tissue” value?
**A.** The value was “can effectively orally deliver”.

**Q.** What about the “oral delivery of single-stranded sRNA nucleic acids into mouse lung tissue” value of the same compound?
**A.** The value was “can effectively orally deliver”.

**Q.** What about the “oral delivery of single-stranded sRNA nucleic acids into mouse spleen tissue” value of the same compound?
**A.** The value was “can effectively orally deliver”.

**Q.** What about the “oral delivery of single-stranded sRNA nucleic acids into mouse stomach tissue” value of the same compound?
**A.** Its value is “can effectively orally deliver”.

**Q.** Which “oral delivery of single-stranded sRNA nucleic acids into mouse brain tissue” value does the source give for C#C[C@]1(O)CC[C@H]2[C@@H]3CCc4cc(O)ccc4[C@H]3CC[C@@]21C [Lipid 591] here?
**A.** Its value is “can effectively orally deliver”.

**Q.** What about the “oral delivery of single-stranded sRNA nucleic acids into mouse femur” value of the same compound?
**A.** The value was “can effectively orally deliver”.

**Q.** And the “oral delivery of single-stranded sRNA nucleic acids into mouse heart tissue” value?
**A.** The value was “can effectively orally deliver”.

**Q.** And the “oral delivery of single-stranded sRNA nucleic acids into mouse intestinal tissue” value?
**A.** Its value is “can effectively orally deliver”.

**Q.** And the “oral delivery of single-stranded sRNA nucleic acids into mouse kidney tissue” value?
**A.** Its value is “can effectively orally deliver”.

**Q.** What about the “oral delivery of single-stranded sRNA nucleic acids into mouse lung tissue” value of the same compound?
**A.** The value was “can effectively orally deliver”.

**Q.** What about the “oral delivery of single-stranded sRNA nucleic acids into mouse spleen tissue” value of the same compound?
**A.** Its value is “can effectively orally deliver”.

**Q.** What about the “oral delivery of single-stranded sRNA nucleic acids into mouse stomach tissue” value of the same compound?
**A.** Its value is “can effectively orally deliver”.

**Q.** Which “delivery efficacy over each tissue and blood tested (broad-spectrum delivery)” value does the source give for C[C@H](CCC(=O)O)[C@H]1CC[C@H]2[C@@H]3[C@@H](O)C[C@@H]4C[C@H](O)CC[C@]4(C)[C@H]3CC[C@]12C [Lipid 592] here?
**A.** Its value is “exhibited the best delivery efficacy”.

**Q.** And the “oral delivery of single-stranded sRNA nucleic acids into mouse blood” value?
**A.** Its value is “can effectively orally deliver”.

**Q.** And the “oral delivery of single-stranded sRNA nucleic acids into mouse brain tissue” value?
**A.** The value was “can effectively orally deliver”.

**Q.** What about the “oral delivery of single-stranded sRNA nucleic acids into mouse femur” value of the same compound?
**A.** Its value is “can effectively orally deliver”.

**Q.** And the “oral delivery of single-stranded sRNA nucleic acids into mouse heart tissue” value?
**A.** The value was “can effectively orally deliver”.

**Q.** And the “oral delivery of single-stranded sRNA nucleic acids into mouse intestinal tissue” value?
**A.** Its value is “can effectively orally deliver”.

**Q.** What about the “oral delivery of single-stranded sRNA nucleic acids into mouse kidney tissue” value of the same compound?
**A.** The value was “can effectively orally deliver”.

**Q.** And the “oral delivery of single-stranded sRNA nucleic acids into mouse liver tissue” value?
**A.** The value was “can effectively orally deliver”.

**Q.** What about the “oral delivery of single-stranded sRNA nucleic acids into mouse lung tissue” value of the same compound?
**A.** The value was “can effectively orally deliver”.

**Q.** What about the “oral delivery of single-stranded sRNA nucleic acids into mouse spleen tissue” value of the same compound?
**A.** The value was “can effectively orally deliver”.

**Q.** And the “oral delivery of single-stranded sRNA nucleic acids into mouse stomach tissue” value?
**A.** Its value is “can effectively orally deliver”.

**Q.** Which results are given for C[C@]12CC[C@@H]3c4ccc(O)cc4CC[C@H]3[C@@H]1C[C@@H](O)[C@@H]2O [Lipid 633]?
**A.** delivery efficacy over each tissue and blood tested (broad-spectrum delivery): exhibited the best delivery efficacy; oral delivery of single-stranded sRNA nucleic acids into mouse blood: can effectively orally deliver; oral delivery of single-stranded sRNA nucleic acids into mouse brain tissue: can effectively orally deliver; oral delivery of single-stranded sRNA nucleic acids into mouse femur: can effectively orally deliver; oral delivery of single-stranded sRNA nucleic acids into mouse heart tissue: can effectively orally deliver; oral delivery of single-stranded sRNA nucleic acids into mouse intestinal tissue: can effectively orally deliver; oral delivery of single-stranded sRNA nucleic acids into mouse kidney tissue: can effectively orally deliver; oral delivery of single-stranded sRNA nucleic acids into mouse liver tissue: can effectively orally deliver; oral delivery of single-stranded sRNA nucleic acids into mouse lung tissue: can effectively orally deliver; oral delivery of single-stranded sRNA nucleic acids into mouse spleen tissue: can effectively orally deliver; oral delivery of single-stranded sRNA nucleic acids into mouse stomach tissue: can effectively orally deliver
